Laboratory results taken from patent US20220184394A1, “STATE-DEPENDENT PUDENDAL NERVE STIMULATION FOR BLADDER CONTROL” (Duke University, priority 2017, published 2022).
“Also recorded” adds a separate entry of the source. Read-outs that look alike come from different tables or passages of the source.

Key:
bladder [1] = settings: intravesical PGE2, rats; cited from earlier work
bladder [2] = assay: Single-fill cystometry with intravesical PGE2 (model of OAB) in anesthetized rats; type: in vivo, Female Wistar rats; settings: intravesical 100 μM PGE2 vs saline control
Protocol: Female Wistar rats (n=18) weighing between 237 and 296 g were anesthetized with urethane (1.2 g/kg SC, supplemented as necessary). Body temperature was monitored using an esophageal temperature probe and maintained at 36-38° C. with a water blanket. Heart rate and arterial blood oxygen saturation levels were monitored using a pulse oximeter (Nonin Medical Inc., 2500 A VET).
For cystometrogram (CMG) measurements, the bladder was exposed via a midline abdominal incision. A PE-90 catheter, the tip of which was heated to create a collar, was inserted into the bladder lumen through a small incision in the apex of the bladder dome and secured with a 6-0 silk suture. The abdominal wall was closed in layers with 3-0 silk suture. […]
The bladder was filled continuously with physiological saline at room temperature (2-8 ml/hr) using an infusion pump with an open urethra for at least 45 minutes during post-surgical recovery. The bladder was subsequently emptied and cystometrograms (CMGs) recorded. […] Voided and residual volumes were recorded and used to calculate bladder capacity and voiding efficiency. […] For these trials, voiding efficiency was calculated as the first voided volume divided by the bladder capacity, and “reflex” voiding efficiency was calculated as the sum of the two voided volumes divided by the bladder capacity. […]

bladder [3] = settings: PGE2 given to healthy women; cited from earlier work

Which Bladder capacity (bladder [1]) does the source give for `CCCCC[C@H](O)/C=C/[C@H]1[C@H](O)CC(=O)[C@@H]1C/C=C\CCCC(=O)O` [PGE2, Prostaglandin E2] here?
The Bladder capacity was “reduces bladder capacity”.

And the Voiding efficiency (bladder [2]; n=9, p<0.001)?
The Voiding efficiency was “increased voiding efficiency; also recorded: Voiding efficiency increased”.

And the Bladder capacity (bladder [2]; urethane-anesthetized, n=9, p=0.02)?
Its Bladder capacity is “consistently reduced bladder capacity; also recorded: decreased bladder capacity; also recorded: Bladder capacity decreased”.

What about the Bladder capacity (bladder [3]) of the same compound?
The Bladder capacity was “reduced bladder capacities”.

What about the Urgency sensation (bladder [3]) of the same compound?
Its Urgency sensation is “a strong urgency sensation”.
